The results in this text go back to paper PMC4363291 (The Journal of investigative dermatology, 2014).

Structures can show the parent of a compound that is named as a salt.

What all share (experiment): voltage-clamp of hemichannel currents in Xenopus oocytes
Common to all, as to type: cell-based

The target in assay [1] is connexin26 (Cx26) hemichannel (Homo sapiens, UniProt P29033, D50A).
Assay [2] concerns the target connexin26 (Cx26) hemichannel (Homo sapiens, UniProt P29033, D50N).
In assay [3] the target is T1, connexin26 (Cx26) hemichannel (Homo sapiens, UniProt P29033, G45E).
For assay [4], the target named is connexin26 (Cx26) hemichannel (Homo sapiens, UniProt P29033, A40V).
Assay [5] concerns the target T1, connexin26 (Cx26) hemichannel. This is another data set of the same source.

With `O[C@@H](c1cc(C(F)(F)F)nc2c(C(F)(F)F)cccc12)[C@H]1CCCCN1` (relative stereo) [MFQ, [R*,S*]-[2,8-Bis-trifluoromethyl-quinolin-4-yl]-piperidin-2-yl-methanolhydrochloride], the “%” value is 50% or better suppression at 30µM in assay [1], 69±15% reduction at 30µM in assay [2] and 50% or better suppression at 30µM in assay [4]. In addition, the IC50 (in general, the concentration needed to halve the response being measured) in assay [3] is around 16 µM.
As to `OC(c1ccccn1)c1cc(C(F)(F)F)nc2c(C(F)(F)F)cccc12` (stereo not drawn) [QU026, [2,8-Bis-trifluoromethyl-quinolin-4-yl]-pyridin-2-yl-methanol], the entries for the “%” value in assay [2] and in assay [5] were 73±11% reduction at 30µM and 59±13% reduction at 30µM, respectively.
